Laboratory results: paper PMC11984905, “Chiral Switch of Gadopiclenol: New Standards in MRI Probes” (Advanced Science, 2025)

Assay: Relaxivity at 21 / 400 MHz and 25 °C in 0.15 M NaCl
Assay type: physicochemical
Settings: 0.15 M NaCl
Procedure: The relaxivity values were calculated from the longitudinal relaxation time of H2O protons (T 1) measured at 21 MHz on a Stelar relaxometer connected to a Bruker WP80 NMR electromagnet adapted to variable‐field measurements (15−80 MHz proton Larmor frequency). The temperature of the sample holder was controlled with a thermostatted air stream. The longitudinal relaxation time was measured with the “inversion recovery” method (180° – τ – 90°) by using 12 different τ values with typical 90° pulse width of 6.4 µs, 4 scans. The measurements were performed with 1 mM solution of the Gd(III)‐complexes with rac‐L1, ent‐L1, rac‐L2, and ent‐L2 ligands, so the relaxivity values were given as r 1 = […] where T 1p and T 1w were the relaxation time of bulk water protons in the presence and absence of paramagnetic species, respectively. The variable pH relaxivity measurements of Gd(III)‐complexes with rac‐L1, ent‐L1, rac‐L2, and ent‐L2 ligands could be carried out by direct titration of the samples in the pH range 2.5–9.0 (21 MHz, 25 °C, 0.15 M NaCl). The pH was adjusted by stepwise addition of concentrated NaOH or HCl solution.
The stability constant of Gd(III)‐complexes with rac‐L2 and ent‐L2 ligands were determined by the measurement of the proton relaxation rates (r 1) studying the competition reaction of rac‐L2 and ent‐L2 ligands with AAZTA for Gd(III) ion at pH = 4.0 in 0.15 M NaCl solution. In these experiments, the concentration of Gd^3+, rac‐L2, and ent‐L2 ligands was 2.0 mM, while that of the AAZTA was varied between 1.0 and 6.0 mM (5 × 1.5 mL samples). The pH was adjusted to pH 4.0 by stepwise addition of concentrated NaOH or HCl solutions. The samples were kept at 70 °C for a month and then at 25°C for two months in order to attain the equilibrium (the time needed to reach the equilibria was determined by ^1H‐NMR relaxometry). ^1H‐NMR relaxometric measurement of Gd(III) – rac‐L2 – AAZTA and Gd(III) – ent‐L2 – AAZTA systems were performed with a Bruker Avance III 400 (9.4 T) equipped with BB inverse z gradient probe (5 mm). The longitudinal relaxation time (T 1) was measured with the “inversion recovery” method (180° – τ – 90°) by using 12 different τ values with typical 90° pulse width of 12.0 µs, 4 scans at 298 K. The stability constants of [Gd(rac‐L2)] and [Gd(ent‐L2)] complexes were calculated by considering the protonation constants of AAZTA ligand and the stability constant of [Gd(AAZTA)]^− complex (AAZTA: logK 1 ^H = 10.06, logK 2 ^H = 6.50, logK 3 ^H = 3.77, logK 4 ^H = 2.33, logK 5 ^H = 1.51; [Gd(AAZTA)]^−: logK GdL = 18.93, 0.15 M NaCl, 25 °C).^[ [47] ^] The equilibrium constants were calculated with the program PSEQUAD.^[ [48] ^]

| Structure (SMILES) | Relaxivity of GdH2L species (21 MHz) [mM⁻¹ s⁻¹] | Relaxivity of GdH3L species (21 MHz) [mM⁻¹ s⁻¹] | Relaxivity of GdHL species (21 MHz) [mM⁻¹ s⁻¹] | Relaxivity of GdL species (21 MHz) [mM⁻¹ s⁻¹] | Relaxivity of GdL species (400 MHz) [mM⁻¹ s⁻¹] | Relaxivity of GdH4L species (21 MHz) [mM⁻¹ s⁻¹] |
| --- | --- | --- | --- | --- | --- | --- |
| O=C(O)CCC(C(=O)O)N1CCN(C(CCC(=O)O)C(=O)O)Cc2cccc(n2)CN(C(CCC(=O)O)C(=O)O)CC1 (stereo not drawn) [ent‐L1] | 12.2 ± 0.2 | 11.8 ± 0.1 | 12.1 ± 0.1 | 12.9 ± 0.1 | – | – |
| O=C(CCC(C(=O)O)N1CCN(C(CCC(=O)NCC(O)CO)C(=O)O)Cc2cccc(n2)CN(C(CCC(=O)NCC(O)CO)C(=O)O)CC1)NCC(O)CO (stereo not drawn) [ent‐L2] | – | – | – | 16.2 ± 0.1 | 11.8 ± 0.1 | – |
| O=C(O)CCC(C(=O)O)N1CCN(C(CCC(=O)O)C(=O)O)Cc2cccc(n2)CN(C(CCC(=O)O)C(=O)O)CC1 (racemic) [rac‐L1, 2,2’,2’’-[3,6,9,15-tetraazabicyclo[9.3.1]pentadeca-1(15),11,13-triene-3,6,9-triyl]tripentanedioic acid] | 9.61 ± 0.06 | 10.1 ± 0.1 | 9.61 ± 0.06 | 9.61 ± 0.06 | – | 11.7 ± 0.1 |
| O=C(CCC(C(=O)O)N1CCN(C(CCC(=O)NCC(O)CO)C(=O)O)Cc2cccc(n2)CN(C(CCC(=O)NCC(O)CO)C(=O)O)CC1)NCC(O)CO (racemic) [rac‐L2] | – | – | – | 14.8 ± 0.1 | 10.8 ± 0.1 | – |
